For assay [1], the system named is macrophage NADPH oxidase. Nature of the assay: Macrophage NADPH oxidase activity after LPS, lucigenin chemiluminescence. Type of assay: cell-based, human. The conditions noted are these: LPS alone 3,310,000±1,670,000. How it is done:
THP-1 cell culture was pretreated for 1 hour with the indicated concentrations of DM before stimulation with 100 ng/mL LPS. Lysis buffer was added to the cells and centrifuged. The supernatant was discarded and the pellet was resuspended. NADPH oxidase activity was measured by mixing 30 μg protein, 5 μM lucigenin, and 100 μM NADPH. Chemiluminescence was determined every 10 seconds for 15 minutes. Data are presented as mean±SD (n=8-15). ***P<0.001 compared with the LPS-treated cells.

In assay [2] the test system is superoxide production in PMN. Nature of the assay: Superoxide production in PMN of apoE-deficient mice, lucigenin chemiluminescence. The format is in vivo. The conditions noted are these: controls 519,000±115,000. How it is done: (§1) ApoE-deficient mice were treated daily with DM 5 mg/kg/day (n=9), 10 mg/kg/day (n=9), 20 mg/kg/day (n=9) or 40 mg/kg/day (n=11) for 10 weeks. Production of superoxide in PMN (1×10^6 cells/mL PBS) (A) was measured by lucigenin-enhanced chemiluminescence. The results are expressed as mean±SD. (P<0.05, control versus 10 mg/kg/day; P<0.001, control versus 20 mg/kg/day and 40 mg/kg/day). Production of superoxide in the thoracic aorta (B) was also measured by lucigenin-enhanced chemiluminescence. The results are expressed as mean±SD. (P<0.05, control versus 10 mg/kg/day and 40 mg/kg/day; P<0.01, control versus 20 mg/kg/day).
(§2) Having established the DM inhibitory effect on macrophage activation and NADPH oxidase, we next examined the functional consequences of which in vivo. […] Sections of left carotid arteries from the mice were stained with DHE and then imaged with a laser scanning confocal microscope.

Assay [3] deals with superoxide in the thoracic aorta. In words: Superoxide production in thoracic aorta of apoE-deficient mice, lucigenin chemiluminescence. The format is in vivo. The conditions noted are these: 10 weeks, controls 534,000±145,000. How it is done: as §1, §2
In assay [4] the test system is superoxide production in aorta. Nature of the assay: Superoxide in aorta of LPS-treated mice, DHE oxidative fluorescent microtopography. The format is in vivo. On the procedure: All mice then received 20 mg/kg LPS by intraperitoneal injection. Blood samples were obtained at 6 hours after LPS injection from a catheter placed in the left carotid artery. Blood samples were centrifuged, and the plasma TNF-α levels were measured by ELISA. Lungs were harvested from the animals 6 hours after LPS injection in each group as described above. The tissues were fixed in 4% paraformaldehyde and embedded in paraffin for histopathological examination. The presence of inflammatory cells in lungs was determined by immunofluorescence. The sections were incubated with rat monoclonal antibody against mouse CD45, a leukocyte common antigen (1:50 dilution, Pharmingen). After washing, fluorescein isothiocyanate-conjugated sheep […] immunoglobulin (Amersham Pharmacia Biotech) was applied as a secondary antibody. […] The total CD45-positive cell number was counted in five randomly selected sections under high power field magnification (400×) for each mouse. Oxidative fluorescent microtopography with the oxidative fluorescent dye dihydroethidium (DHE) was used to evaluate the in situ production of superoxide in aorta. […] Fluorescence was detected with a laser scanning confocal microscope (Leica Microsystems, Germany) with excitation at 488-nm and detection at 585-nm using a long-pass filter.

Experimental findings from patent publication US7820689B2, “Methods and compositions for preventing or treating cardiovascular disease” (priority 2006, dated 2010) are described below.

In the case of `COc1ccc2c(c1)[C@]13CCCC[C@@H]1[C@H](C2)N(C)CC3` [DM, (+)-3-methoxy-17-methyl-9α,13α,14α-morphinan], the NADPH oxidase activity in assay [1] (DM 0.01 μM pretreatment) is given as 1,360,000±860,000 RLU/15 min/mL; in assay [1] (DM 0.1 μM pretreatment) it was 1,280,000±540,000 RLU/15 min/mL; in assay [1] (DM 1 μM pretreatment) it was 1,400,000±730,000 RLU/15 min/mL. Besides, the “PMN production of superoxide” value in assay [2] (5 mg/kg/day 10 weeks, P=NS) was 460,000±138,000 RLU/15 min; in assay [2] (10 mg/kg/day 10 weeks) it was 390,000±63,000 RLU/15 min; in assay [2] (20 mg/kg/day 10 weeks), 328,000±82,000 RLU/15 min; in assay [2] (40 mg/kg/day 10 weeks), 328,000±82,000 RLU/15 min. The “superoxide in the thoracic aorta” value is on record as 424,000±141,000 RLU/15 min in assay [3] (5 mg/kg, P=NS); 377,000±97,000 RLU/15 min in assay [3] (10 mg/kg); 341,000±94,000 RLU/15 min in assay [3] (20 mg/kg); 379,000±84,000 RLU/15 min in assay [3] (40 mg/kg).

Consider `C=CCN1CC[C@]23c4c5ccc(O)c4O[C@H]2C(=O)CC[C@@]3(O)[C@H]1C5` [Naloxone, 17-allyl-4,5α-epoxy-3,14-dihydroxymorphinan-6-one], for which the “DHE staining of aorta (superoxide), FIG. 5” value in assay [4] (20 mg/kg naloxone pretreatment 1 hour before LPS) is reported as “staining was much more reduced”. Besides, in assay [4] (10, 20, and 25 mg/kg pretreatment, LPS-treated mice), the “DHE fluorescence intensity in aortic sections (superoxide)” value is on record as “significantly reduced the increase of fluorescence intensity”.
